For four molecules, MIC results are on record in patent publication US20070258912A1, “Use of Fluorescent Whitening Agents as Antimicrobials” (priority 2004, published 2007).

What all share (assay type): cell-based
The test system of assay [1] is Prevotella nigrescens. The assay is described as follows: MIC against oral microorganisms via broth dilution. On the procedure: (§1) Determination of the Minimum Inhibition Concentration (MIC Value) Against Different Oral Microorganisms Via Broth Dilution
(§2) 1500 ppm stock solutions of the substances are prepared in ethanol and pipetted into the growth medium to yield concentrations between 0.94 and 15 ppm. Bacteria are taken from blood agar plates with cotton swabs and adjusted in the appropriate growth medium to yield an optical density corresponding to McFarland 0.5. This suspension is directly used in the case of F. nucleatum and P. nigrescens. For the other strains, the suspension is diluted 1:20. 0.1 ml of these bacterial suspensions are added to 2 ml of the substance solutions. After the incubation time, the tubes are assessed for growth (turbidity).
(§3) Test Organisms: *Actinobacillus actinomycetemcomitans ATCC 43718 *Stretococcus gordonii ATCC 10558 *Streptococcus mutans ATCC 33402 Actinomyces viscosus ATCC 43146 Fusobacterium nucleatum subsp. polymorphum ATCC 10953 Porphyromonas gingivalis ATCC 33277
(§4) Prevotella nigrescens ATCC 33563
On the technique in general: Broth dilution looks for growth in wells or tubes with falling amounts of substance.

Assay [2] deals with Streptococcus mutans. Briefly: MIC against oral microorganisms via broth dilution. On the procedure:
as §1, §2, §3, §4

The subject of assay [3] is Porphyromnas gingivalis. Briefly: MIC against oral microorganisms via broth dilution. The conditions noted are these: read-out: MIC Porphyromnas gingivalis. How it is done: as §1, §2, §3, §4
For assay [4], the system named is Actinomyces viscosus. The assay is described as follows: MIC against oral microorganisms via broth dilution. How it is done:
as §1, §2, §3, §4

For assay [5], the system named is Streptococcus gordonii. The assay is described as follows: MIC against oral microorganisms via broth dilution. How it is done:
as §1, §2, §3, §4

Assay [6] deals with Fusobacterium nucleatum subsp. polymorphum. Briefly: MIC against oral microorganisms via broth dilution. How it is done: as §1, §2, §3, §4
In assay [7] the test system is Corynebacterium minutissimum. Briefly: MIC in the agar incorporation test. The conditions noted are these: read-out: MIC Corynebacterium minutissimum.
In assay [8] the test system is Salmonella choleraesuis. Briefly: MIC in the agar incorporation test. The conditions noted are these: Salmonella enterica, Mueller Hinton agar, 24 hours at 37° C. On the procedure:
(§5) Determination of Minimum Inhibitory Concentration (MIC Values) in the Agar Incorporation Test
(§6) 1% stock solutions of the substances are prepared in an appropriate solvent and diluted in serial dilutions 1:2 (to yield end concentrations in the agar of 500-1.9 ppm). 0.3 ml of each dilution step is mixed with 15 ml of nutrient medium while the latter is still liquid. After the nutrient medium has solidified, 10 μl of each test strain in 0.85% NaCl solution are spotted onto the agar medium.
(§7) The plates are incubated at 37° C. for 24 hours and then the highest dilution (lowest concentration) of the test substance at which growth is no longer observable is determined.
(§8) Test Organisms: Staphylococcus aureus ATCC 6583 Staphylococcus epidermidis ATCC 12228 Corynebacterium xerosis ATCC 373 Propionibacterium acnes ATCC Escherichia coli ATCC 10536 Salmonella choleraesuis ATCC Klebsiella pneumoniae ATCC *Candida albicans ATCC 10231
(§9) *Aspergillus niger ATCC 6275

Assay [9] concerns Staphylococcus epidermis. Briefly: MIC in the agar incorporation test. On the procedure:
as §5, §6, §7, §8, §9

In assay [10] the test system is Staphylococcus aureus. Briefly: MIC in the agar incorporation test. On the procedure:
as §5, §6, §7, §8, §9

In assay [11] the test system is Corynebacterium xerosis. Briefly: MIC in the agar incorporation test. On the procedure:
as §5, §6, §7, §8, §9

Assay [12] concerns Klebsiella pneumoniae. The assay is described as follows: MIC in the agar incorporation test. The conditions noted are these: Mueller Hinton agar, 24 hours at 37° C. On the procedure: as §5, §6, §7, §8, §9
The subject of assay [13] is Propionibacterium acnes. Briefly: MIC in the agar incorporation test. The conditions noted are these: Cutibacterium acnes, read-out: MIC Propionibacterium acnes. How it is done:
as §5, §6, §7, §8, §9

For assay [14], the system named is Escherichia coli. Briefly: MIC in the agar incorporation test. The conditions noted are these: ATCC10536, 24 h, read-out: MIC Escherichia coli. How it is done:
as §5, §6, §7, §8, §9

[15] abbreviates: agar incorporation, Mueller Hinton agar, 24 hours at 37° C.
Setting [16] is: ATCC33563, read-out: MIC Prevotella nigrescens.
[17] abbreviates: ATCC33402, 24 h, read-out: MIC Streptococcus mutans.
Where [18] appears, read: ATCC43146, read-out: MIC Actinomyces viscosus.
The mark [19] stands for this setting: ATCC10558, 24 h, read-out: MIC Streptococcus gordonii.
Setting [20] is: ATCC12228, 24 h, read-out: MIC Staphylococcus epidermis.
[21] abbreviates: ATCC6583, 24 h, read-out: MIC Staphylococcus aureus.
[22] abbreviates: ATCC373, 24 h, read-out: MIC Corynebacterium xerosis.

Like-named read-outs stand apart in the source and are kept apart here.

Broadly, the MIC is the smallest concentration in the dilution series that meets the test's criterion for growth inhibition. Regarding `COc1cccc(/C=C/c2ccc(/C=C/c3cccc(OC)c3OCCCN(C)C)cc2)c1OCCCN(C)C` [formula 27], the minimum inhibitory concentration (MIC) in [1] (ATCC33563, broth dilution 0.94-15 ppm, Columbia bouillon, 7-10 days at 37° C. anaerobically, ATCC 33563, read-out: MIC Prevotella nigrescens) was 3.8 µg/mL; in [2] (ATCC33402, broth dilution 0.94-15 ppm, 24 h aerobically with 10% CO2, ATCC 33402, read-out: MIC Streptococcus mutans), 15 µg/mL; in assay [3] (broth dilution 0.94-15 ppm, Columbia bouillon, 7-10 days at 37° C. anaerobically, ATCC 33277), 7.5 µg/mL; in assay [4] (ATCC43146, broth dilution 0.94-15 ppm, 7-10 days at 37° C. anaerobically, ATCC 43146, read-out: MIC Actinomyces viscosus), 7.5 µg/mL; in assay [5] (ATCC10558, broth dilution 0.94-15 ppm, 24 h aerobically with 10% CO2, ATCC 10558, read-out: MIC Streptococcus gordonii), 15 µg/mL; in assay [6] (ATCC10953, broth dilution 0.94-15 ppm, 7-10 days at 37° C. anaerobically, ATCC 10953, read-out: MIC Fusobacterium nucleatum subsp. polymorphum) it was 7.5 µg/mL. The minimum inhibitory concentration (MIC) in assay [7] (setting [15]) stood at 3.1 µg/mL; in assay [8] it was 200 µg/mL; in [9] (ATCC12228, agar incorporation, Mueller Hinton agar, 24 hours at 37° C., ATCC 12228, read-out: MIC Staphylococcus epidermis) it was 12.5 µg/mL; in [10] (ATCC6583, agar incorporation, Mueller Hinton agar, 24 hours at 37° C., ATCC 6583, read-out: MIC Staphylococcus aureus), 12.5 µg/mL; in [11] (ATCC373, agar incorporation, Mueller Hinton agar, 24 hours at 37° C., ATCC 373, read-out: MIC Corynebacterium xerosis), 3.1 µg/mL; in assay [12] it was 25 µg/mL. Besides, in [13] (setting [15]), the MIC was found to be 6.3 µg/mL.
`COc1cccc(/C=C/c2ccc(-c3ccc(/C=C/c4cccc(OC)c4OCCCN(C)C)cc3)cc2)c1OCCCN(C)C` [formula 31]: the MIC was determined as 3.75 µg/mL in assay [1] (setting [16]); 7.5 µg/mL in [2] (setting [17]); 1.9 µg/mL in assay [3]; 3.8 µg/mL in assay [4] (setting [18]); 11.2 µg/mL in assay [5] (setting [19]); 15 µg/mL in assay [6] (ATCC10953, read-out: MIC Fusobacterium nucleatum subsp. polymorphum). Moreover, the minimal inhibitory concentration (MIC) in assay [7] (24 h) is 15.6 µg/mL; in assay [9] (setting [20]) it was 125 µg/mL; in [10] (setting [21]) it was 62.5 µg/mL; in assay [11] (setting [22]), 125 µg/mL; in assay [13] (24 h), 7.8 µg/mL.
With `C[n+]1ccccc1COc1ccccc1/C=C/c1ccc(-c2ccc(/C=C/c3ccccc3OCc3cccc[n+]3C)cc2)cc1` [formula 32], the MIC is 200 µg/mL in assay [7] (24 h), 50 µg/mL in assay [9] (setting [20]), 100 µg/mL in assay [11] (setting [22]) and 100 µg/mL in [13] (24 h).
On to `C[n+]1ccc(Oc2ccccc2/C=C/c2ccc(-c3ccc(/C=C/c4ccccc4Oc4cc[n+](C)cc4)cc3)cc2)cc1` [formula 34], for which the MIC in [1] (setting [16]) amounted to 3.8 µg/mL; in assay [2] (setting [17]), 1.9 µg/mL; in assay [3] it was 7.5 µg/mL; in [4] (setting [18]) it was 1.9 µg/mL; in [5] (setting [19]) it was 15 µg/mL; in assay [7] (24 h) it was 3.1 µg/mL. Also, the MIC in assay [9] (setting [20]) is 3.1 µg/mL; in assay [10] (setting [21]), 3.1 µg/mL; in [14], 50 µg/mL; in assay [11] (setting [22]) it was 3.1 µg/mL; in assay [13] (24 h), 1.6 µg/mL.
